Laboratory results: patent EP1681292A1, “3-Amino-6-aryl(or 6-heteroaryl)-thieno¬2,3-b|pyridin-2-carboxylic acid amides, pharmaceutical compositions comprising the said and their use as inhibitors of TNFalpha release” (IBFB Pharma GmbH, priority 2005, dated 2006)
pEC50: −log10 of the molar value.

These compounds were tested on TNFα-Freisetzung (assay: Inhibition of TNFα release after LPS stimulation of human whole blood (ELISA)). Details: human whole blood diluted 1:5 with RPMI 1640, LPS (Salmonella abortus equi) 1 µg/ml, 24 h at 37°C, TNFα in supernatant by ELISA; read-out: Hemmung der TNFα-Freisetzung, EC50.
Type: cell-based
Description: Methodenbeschreibung der Hemmung der TNFα Freisetzung nach LPS Stimulation von humanem Vollblut
Die Stimulierung isolierter Leukozyten für die Freisetzung von Zytokinen kann auf verschiedenen Wegen erfolgen. Lipopolysaccharide (LPS) stellen einen Stimulus für die Untersuchung der Freisetzung von TNFα dar. LPS ist Bestandteil bakterieller Zellwände und wird beim Abtöten der Bakterien (durch Antibiotika oder das natürliche Immunsystem) freigesetzt. LPS stimuliert insbesondere die Aktivität phagozytierender Leukozyten (Gewebsmakrophagen, Granulozyten, Monozyten) und verursacht die Infiltration von Leukozyten vom peripheren Blut in das betroffene Gewebe. Ein Zytokin von besonderer Bedeutung für diese Mechanismen ist TNFα, das in großen Mengen durch die betroffenen Zellen sezerniert wird. Hauptquelle dabei sind Monozyten und Makrophagen. TNFα initiiert und prolongiert den Entzündungsprozess im Zusammenspiel mit anderen Mediatoren.
Für die Untersuchung des Effektes auf die LPS-induzierte TNFα-Freisetzung wurde eine Methode verwendet, die von MARX et al. (Marx D, Tassabehji M, Heer S, Hüttenbrink KB, Szelenyi I (2002) Pulmonary Pharmacology & Therapeutics 15 7-15) beschrieben wurde. Die Methodenbeschreibung in verkürzter Darstellung: Humanes Blut verschiedener Spendern wird durch Zusatz von 10 mM Na-Citrat ungerinnbar gemacht und 1:5 mit RPMI 1640 Zellkulturmedium verdünnt. Die Verbindungen der allgemeinen Formel 1 sowie die Kontrollsubstanzen (z.B. Dexamethason) wurden den Blutproben in verschiedenen Konzentrationen hinzugefügt. 15 Minuten später wurden die Leukozyten durch Zusatz von Lipopolysacchariden (LPS) (aus Salmonella abortus equi) in einer Endkonzentration von 1 µg/ml stimuliert. Nach Inkubation der Testansätze für 24 Stunden bei 37°C. und unter 5% CO2 in wassergesättigter Luft, wurde das Blut zentrifugiert und die Konzentration an TNFα im zellfreien Überstand unter Verwendung eines käuflichen ELISA (BD Biosciences) nach Angaben des Herstellers exakt vermessen.

SMILES	pEC50
NC(=O)c1sc2nc(-c3cccs3)cc(C(F)(F)F)c2c1N [3-Amino-6-(2-thienyl)-4-trifluormethyl-thieno[2,3-b]pyridin-2-carbonsäureamid]	> 8.30
NC(=O)c1sc2nc(-c3ccc4c(c3)OCCO4)cc(C(F)(F)F)c2c1N [3-Amino-6-(3,4-dioxoethylen-phenyl)-4-trifluormethyl-thieno[2,3-b]pyridin-2-carbonsäureamid]	> 8.30
CSc1ccc(-c2cc(C(F)(F)F)c3c(N)c(C(N)=O)sc3n2)cc1 [3-Amino-6-(4-methylthio-phenyl)-4-trifluormethyl-thieno[2,3-b]pyridin-2-carbonsäureamid]	> 8.30
Cc1ccc(-c2cc(C)c3c(N)c(C(N)=O)sc3n2)cc1 [Beispiel 3, 3-Amino-4-methyl-6-(4-methyl-phenyl)-thieno[2,3-b]pyridin-2-carbonsäureamid]	> 8.30
Cc1cc(-c2ccc(F)cc2)nc2sc(C(N)=O)c(N)c12 [Beispiel 6, 3-Amino-6-(4-fluor-phenyl)-4-methyl-thieno[2,3-b]pyridin-2-carbonsäureamid]	> 8.30
Cc1cc(-c2cccs2)nc2sc(C(N)=O)c(N)c12 [Beispiel 10, 3-Amino-4-methyl-6-(2-thienyl)-thieno[2,3-b]pyridin-2-carbonsäureamid]	> 8.30
CCc1ccc(-c2cc(C(F)(F)F)c3c(N)c(C(N)=O)sc3n2)cc1 [Beispiel 15, 3-Amino-6-(4-ethyl-phenyl)-4-trifluormethyl-thieno[2,3-b]pyridin-2-carbonsäureamid]	> 8.30
Cc1ccc(-c2cc(C(F)(F)F)c3c(N)c(C(N)=O)sc3n2)cc1C [Beispiel 18, 3-Amino-6-(3,4-dimethyl-phenyl)-4-trifluormethyl-thieno[2,3-b]pyridin-2-carbonsäureamid]	> 8.30
CCOc1ccc(-c2cc(C(F)(F)F)c3c(N)c(C(N)=O)sc3n2)cc1 [Beispiel 20, 3-Amino-6-(4-ethoxy-phenyl)-4-trifluormethyl-thieno[2,3-b]pyridin-2-carbonsäureamid]	> 8.30
NC(=O)c1sc2nc(-c3ccc(Cl)cc3)cc(C(F)(F)F)c2c1N [Beispiel 22, 3-Amino-6-(4-chlor-phenyl)-4-trifluormethyl-thieno[2,3-b]pyridin-2-carbonsäureamid]	> 8.30
NC(=O)c1sc2nc(-c3ccc(Br)cc3)cc(C(F)(F)F)c2c1N [Beispiel 23, 3-Amino-6-(4-brom-phenyl)-4-trifluormethyl-thieno[2,3-b]pyridin-2-carbonsäureamid]	> 8.30
NC(=O)c1sc2nc(-c3ccc4c(c3)OCO4)cc(C(F)(F)F)c2c1N [Beispiel 26, 3-Amino-6-(3,4-dioxomethylen-phenyl)-4-trifluormethyl-thieno[2,3-b]pyridin-2-carbonsäureamid]	> 8.30
CCc1cc(-c2ccc(Cl)cc2)nc2sc(C(N)=O)c(N)c12 [Beispiel 30, 3-Amino-6-(4-chlor-phenyl)-4-ethyl-thieno[2,3-b]pyridin-2-carbonsäureamid]	> 8.30
CCc1cc(-c2ccc(SC)cc2)nc2sc(C(N)=O)c(N)c12 [Beispiel 31, 3-Amino-4-ethyl-6-(4-methylthio-phenyl)-thieno[2,3-b]pyridin-2-carbonsäureamid]	> 8.30

Second part, the compound after the results:

pEC50	SMILES
> 8.30	CSc1ccc(-c2cc(C)c3c(N)c(C(N)=O)sc3n2)cc1 [3-Amino-4-methyl-6-(4-methylthio-phenyl)-thieno[2,3-b]pyridin-2-carbonsäureamid]
> 8.30	Cc1cc(-c2ccc3c(c2)OCCO3)nc2sc(C(N)=O)c(N)c12 [3-Amino-6-(3,4-dioxoethylen-phenyl)-4-methyl-thieno[2,3-b]pyridin-2-carbonsäureamid]
> 8.30	Cc1cc(-c2ccc(Cl)cc2)nc2sc(C(N)=O)c(N)c12 [3-Amino-6-(4-chlor-phenyl)-4-methyl-thieno[2,3-b]pyridin-2-carbonsäureamid]
> 8.30	Cc1cccc(-c2cc(C)c3c(N)c(C(N)=O)sc3n2)c1 [Beispiel 2, 3-Amino-4-methyl-6-(3-methyl-phenyl)-thieno[2,3-b]pyridin-2-carbonsäureamid]
> 8.30	COc1ccc(-c2cc(C)c3c(N)c(C(N)=O)sc3n2)cc1 [Beispiel 4, 3-Amino-4-methyl-6-(4-methoxy-phenyl)-thieno[2,3-b]pyridin-2-carbonsäureamid]
> 8.30	Cc1cc(-c2ccc(Br)cc2)nc2sc(C(N)=O)c(N)c12 [Beispiel 7, 3-Amino-6-(4-brom-phenyl)-4-methyl-thieno[2,3-b]pyridin-2-carbonsäureamid]
> 8.30	Cc1cc(-c2ccccc2)nc2sc(C(N)=O)c(N)c12 [Beispiel 8, 3-Amino-4-methyl-6-phenyl-thieno[2,3-b]pyridin-2-carbonsäureamid]
> 8.30	Cc1cc(-c2ccc3c(c2)OCO3)nc2sc(C(N)=O)c(N)c12 [Beispiel 9, 3-Amino-6-(3,4-dioxomethylen-phenyl)-4-methyl-thieno[2,3-b]pyridin-2-carbonsäureamid]
> 8.30	Cc1ccc(-c2cc(C(F)F)c3c(N)c(C(N)=O)sc3n2)cc1 [Beispiel 11, 3-Amino-4-difluormethyl-6-(4-methyl-phenyl)-thieno[2,3-b]pyridin-2-carbonsäureamid]
> 8.30	CC(C)c1ccc(-c2cc(C(F)(F)F)c3c(N)c(C(N)=O)sc3n2)cc1 [Beispiel 12, 3-Amino-6-(4-isopropyl-phenyl)-4-trifluormethyl-thieno[2,3-b]pyridin-2-carbonsäureamid]
> 8.30	NC(=O)c1sc2nc(-c3ccccc3)cc(C(F)(F)F)c2c1N [Beispiel 13, 3-Amino-6-phenyl-4-trifluormethyl-thieno[2,3-b]pyridin-2-carbonsäureamid]
> 8.30	Cc1ccc(-c2cc(C(F)(F)F)c3c(N)c(C(N)=O)sc3n2)cc1 [Beispiel 14, 3-Amino-6-(4-methyl-phenyl)-4-trifluormethyl-thieno[2,3-b]pyridin-2-carbonsäureamid]
> 8.30	CCCc1ccc(-c2cc(C(F)(F)F)c3c(N)c(C(N)=O)sc3n2)cc1 [Beispiel 16, 3-Amino-6-(4-propyl-phenyl)-4-trifluormethyl-thieno[2,3-b]pyridin-2-carbonsäureamid]
> 8.30	COc1ccc(-c2cc(C(F)(F)F)c3c(N)c(C(N)=O)sc3n2)cc1 [Beispiel 19, 3-Amino-6-(4-methoxy-phenyl)-4-trifluormethyl-thieno[2,3-b]pyridin-2-carbonsäureamid]
> 8.30	NC(=O)c1sc2nc(-c3ccc(F)cc3)cc(C(F)(F)F)c2c1N [Beispiel 21, 3-Amino-6-(4-fluor-phenyl)-4-trifluormethyl-thieno[2,3-b]pyridin-2-carbonsäureamid]
> 8.30	NC(=O)c1sc2nc(-c3ccc4ccccc4c3)cc(C(F)(F)F)c2c1N [Beispiel 25, 3-Amino-6-(2-naphthyl)-4-trifluormethyl-thieno[2,3-b]pyridin-2-carbonsäureamid]
> 8.30	CCc1cc(-c2ccc(C)cc2)nc2sc(C(N)=O)c(N)c12 [Beispiel 27, 3-Amino-4-ethyl-6-(4-methyl-phenyl)-thieno[2,3-b]pyridin-2-carbonsäureamid]
